From patent US9120839B2, “Ursolic acid derivative and method for preparing same” (Nexoligo Co., Ltd., priority 2012, dated 2015)
Like-named read-outs stand apart in the source and are kept apart here.

What was measured:
[1] = Pharmacokinetic animal test on Sprague Dawley (SD) rat, ursolic acid concentration in blood plasma; format: in vivo; conditions: male, intravenous administration, dose 0.5 (mg/kg per Table 1), SD rats
Description: Pharmacokinetic Animal Test on Sprague Dawley (SD) Rat, Using Ursolic Acid and Ursolic Acid Derivatives of Examples
• Ursolic acid derivative of Examples (5-methyl-2-oxo-1,3-dioxole-4-yl)methyl 3β-hydroxyl-urs-12-en-28-oate was used.
The ursolic acid was single-intravenously administered on SD rats and the ursolic acid derivative of Example 2 was orally administered, then blood collection was performed each time, and concentration of the test substance in blood was analyzed. Accordingly, bioavailability of the ursolic acid and ursolic acid derivatives of Examples were measured and compared with each other.
i) Control substance (Intravenous Administration): Ursolic Acid (UA) (HPLC purity of 99.0% or more/area percentage)
ii) Test substance (Oral Administration) Ursolic acid derivative of Example 2 (HPLC purity of 99.4% or more/area percentage)
The control substance for intravenous administration was diluted with 0.9% saline which was sterilized and sealed to be prepared in 0.5 mg/mL. […]
(3) Calculation of Injection Amount: The injection amount was calculated to be 1.0 or 2.0 mL/kg, on the basis of the recently measured body weight before the administration. […]
Concentration of ursolic acid in the blood plasma of the rats was measured. […]

[2] = background statement on ursolic acid; cited from earlier work
[3] = rats, from Paper 1; cited from earlier work

SMILES | AUC(0-t) [1] [ng·h/mL] | Cmax [1] [ng/mL] | oral absorptivity [2] | oral absorptivity [3]
C[C@H]1[C@H](C)CC[C@]2(C(=O)O)CC[C@]3(C)C(=CC[C@@H]4[C@@]5(C)CC[C@H](O)C(C)(C)[C@@H]5CC[C@]43C)[C@H]12 [Ursolic Acid, 3β-hydroxy-urs-12-en-28-oic acid] | 114 | 378 | less than 1% | 
CC1(C)CC[C@]2(C(=O)O)CC[C@]3(C)C(=CC[C@@H]4[C@@]5(C)CC[C@H](O)C(C)(C)[C@@H]5CC[C@]43C)[C@@H]2C1 [oleanolic acid] |  |  |  | about 0.7%
